In US20140343000A1 (priority 2011, published 2014):

Tested on: recombinant NL4-3 virus (Renilla luciferase in nef, Gag P373S; NLRluc) in MT-2 cells
Assay: whole plant or invertebrate
Format: cell-based, HIV
Settings: Renilla, NL43, luciferase activity in cells infected for 4-5 days with NLRluc recombinants, serial dilutions of inhibitor; class symbols (key in Table 1); read-out: EC50
Protocol: MT-2 cells and 293T cells were obtained from the NIH AIDS Research and Reference Reagent Program. MT-2 cells were propagated in RPMI 1640 media supplemented with 10% heat inactivated fetal bovine serum, […]. The 293T cells were propagated in DMEM media supplemented with 10% heat inactivated fetal bovine serum (FBS), 100 units/ml penicillin G and 100 μg/ml streptomycin. The proviral DNA clone of NL4-3 was obtained from the NIH AIDS Research and Reference Reagent Program. A recombinant NL4-3 virus, in which a section of the nef gene from NL4-3 was replaced with the Renilla luciferase gene, was used as a reference virus. In addition, residue Gag P373 was converted to P373S. Briefly, the recombinant virus was prepared by transfection of the altered proviral clone of NL4-3. Transfections were performed in 293T cells using LipofectAMINE PLUS from Invitrogen (Carlsbad, Calif.), according to manufacturer's instruction. The virus was titered in MT-2 cells using luciferase enzyme activity as a marker. Luciferase was quantitated using the Dual Luciferase kit from Promega (Madison, Wis.), with modifications to the manufacturer's protocol. The diluted Passive Lysis solution was pre-mixed with the re-suspended Luciferase Assay Reagent and the re-suspended Stop & Glo Substrate (2:1:1 ratio). Fifty (50) μL of the mixture was added to each aspirated well on assay plates and luciferase activity was measured immediately on a Wallac TriLux (Perkin-Elmer). Antiviral activities of inhibitors toward the recombinant virus were quantified by measuring luciferase activity in cells infected for 4-5 days with NLRluc recombinants in the presence serial dilutions of the inhibitor. Table 1 is the key for the data in Table 2.

Structure (SMILES)	EC50
C=C(C)[C@@H]1CC[C@]2(NCCNc3nccn3C)CC[C@]3(C)[C@H](CC[C@@H]4[C@@]5(C)CC=C(c6ccc(C(=O)O)cc6)C(C)(C)[C@@H]5CC[C@]43C)[C@@H]12 [Example 191, 4-((1R,3aS,5aR,5bR,7aR,11aS,11bR,13aR,13bR)-5a,5b,8,8,11a-pentamethyl-3a-(2-(1-methyl-1H-imidazol-2-ylamino)ethylamino)-1-(prop-1-en-2-yl)-2,3,3a,4,5,5a,5b,6,7,7a,8,11,11a,11b,12,13,13a,13b-octadecahydro-1H-cyclopenta[a]chrysen-9-yl)benzoic acid]	< 100 nM
C=C(C)[C@@H]1CC[C@]2(NC(=O)NCCNC(C)=O)CC[C@]3(C)[C@H](CC[C@@H]4[C@@]5(C)CC=C(c6ccc(C(=O)O)cc6)C(C)(C)[C@@H]5CC[C@]43C)[C@@H]12 [Example 26, 4-((1R,3aS,5aR,5bR,7aR,11aS,11bR,13aR,13bR)-3a-(3-(2-acetamidoethyl)ureido)-5a,5b,8,8,11a-pentamethyl-1-(prop-1-en-2-yl)-2,3,3a,4,5,5a,5b,6,7,7a,8,11,11a,11b,12,13,13a,13b-octadecahydro-1H-cyclopenta[a]chrysen-9-yl)benzoic acid]	< 100 nM
C=C(C)[C@@H]1CC[C@]2(NC(=O)[C@@H]3CC(F)(F)CN3C(=O)OC(C)(C)C)CC[C@]3(C)[C@H](CC[C@@H]4[C@@]5(C)CC=C(c6ccc(C(=O)O)cc6)C(C)(C)[C@@H]5CC[C@]43C)[C@@H]12 [Example 114, 4-((1R,3aS,5aR,5bR,7aR,11aS,11bR,13aR,13bR)-3a-((S)-1-(tert-butoxycarbonyl)-4,4-difluoropyrrolidine-2-carboxamido)-5a,5b,8,8,11a-pentamethyl-1-(prop-1-en-2-yl)-2,3,3a,4,5,5a,5b,6,7,7a,8,11,11a,11b,12,13,13a,13b-octadecahydro-1H-cyclopenta[a]chrysen-9-yl)benzoic acid]	< 100 nM
C=C(C)[C@@H]1CC[C@]2(NC(=O)OCCCCN3CCS(=O)(=O)CC3)CC[C@]3(C)[C@H](CC[C@@H]4[C@@]5(C)CC=C(c6ccc(C(=O)O)cc6)C(C)(C)[C@@H]5CC[C@]43C)[C@@H]12 [Example 72, benzoic acid, 4-[(1R,3aS,5aR,5bR,7aR,11aS,11bR,13aR,13bR)-3a-[[[4-(1,1-dioxido-4-thiomorpholinyl)butoxy]carbonyl]amino]-2,3,3a,4,5,5a,5b,6,7,7a,8,11,11a,11b,12,13,13a,13b-octadecahydro-5a,5b,8,8,11a-pentamethyl-1-(1-methylethenyl)-1H-cyclopenta[a]chrysen-9-yl]]	< 100 nM
C=C(C)[C@@H]1CC[C@]2(NCCS(C)(=O)=O)CC[C@]3(C)[C@H](CC[C@@H]4[C@@]5(C)CC=C(c6ccc(C(=O)O)cc6)C(C)(C)[C@@H]5CC[C@]43C)[C@@H]12 [Example 136, 4-((1R,3aS,5aR,5bR,7aR,11aS,11bR,13aR,13bR)-5a,5b,8,8,11a-pentamethyl-3a-(2-(methylsulfonyl)ethylamino)-1-(prop-1-en-2-yl)-2,3,3a,4,5,5a,5b,6,7,7a,8,11,11a,11b,12,13,13a,13b-octadecahydro-1H-cyclopenta[a]chrysen-9-yl)benzoic acid]	< 100 nM
C=C(C)[C@@H]1CC[C@]2(NC(=O)NCCCN(C)C)CC[C@]3(C)[C@H](CC[C@@H]4[C@@]5(C)CC=C(c6ccc(C(=O)O)cc6)C(C)(C)[C@@H]5CC[C@]43C)[C@@H]12 [Example 10, 4-((1R,3aS,5aR,5bR,7aR,11aS,11bR,13aR,13bR)-3a-(3-(3-(dimethylamino)propyl)ureido)-5a,5b,8,8,11a-pentamethyl-1-(prop-1-en-2-yl)-2,3,3a,4,5,5a,5b,6,7,7a,8,11,11a,11b,12,13,13a,13b-octadecahydro-1H-cyclopenta[a]chrysen-9-yl)benzoic acid]	< 100 nM
C=C(C)[C@@H]1CC[C@]2(NC(=O)NCCCn3ccnc3C)CC[C@]3(C)[C@H](CC[C@@H]4[C@@]5(C)CC=C(c6ccc(C(=O)O)cc6)C(C)(C)[C@@H]5CC[C@]43C)[C@@H]12 [Example 12, 4-((1R,3aS,5aR,5bR,7aR,11aS,11bR,13aR,13bR)-5a,5b,8,8,11a-pentamethyl-3a-(3-(3-(2-methyl-1H-imidazol-1-yl)propyl)ureido)-1-(prop-1-en-2-yl)-2,3,3a,4,5,5a,5b,6,7,7a,8,11,11a,11b,12,13,13a,13b-octadecahydro-1H-cyclopenta[a]chrysen-9-yl)benzoic acid]	< 100 nM
C=C(C)[C@@H]1CC[C@]2(NCCN3CCC(F)(F)CC3)CC[C@]3(C)[C@H](CC[C@@H]4[C@@]5(C)CC=C(c6ccc(C(=O)O)cc6)C(C)(C)[C@@H]5CC[C@]43C)[C@@H]12 [Example 172]	< 100 nM
CC(C)[C@@H]1CC[C@]2(NCCN3CCOCC3)CC[C@]3(C)[C@H](CC[C@@H]4[C@@]5(C)CC[C@H](c6ccc(C(=O)O)cc6)C(C)(C)[C@@H]5CC[C@]43C)[C@@H]12 [Example B4]	< 100 nM
C=C(C)[C@@H]1CC[C@]2(NCCN3CCN(S(=O)(=O)CCCC)CC3)CC[C@]3(C)[C@H](CC[C@@H]4[C@@]5(C)CC=C(c6ccc(C(=O)O)cc6)C(C)(C)[C@@H]5CC[C@]43C)[C@@H]12 [Example B39, 4-((1R,3aS,5aR,5bR,7aR,11aS,11bR,13aR,13bR)-3a-((2-(4-(butylsulfonyl)piperazin-1-yl)ethyl)amino)-5a,5b,8,8,11a-pentamethyl-1-(prop-1-en-2-yl)-2,3,3a,4,5,5a,5b,6,7,7a,8,11,11a,11b,12,13,13a,13b-octadecahydro-1H-cyclopenta[a]chrysen-9-yl)benzoic acid]	< 100 nM
C=C(C)[C@@H]1CC[C@]2(NC(=O)CN3CCCCS3(=O)=O)CC[C@]3(C)[C@H](CC[C@@H]4[C@@]5(C)CC=C(c6ccc(C(=O)O)cc6)C(C)(C)[C@@H]5CC[C@]43C)[C@@H]12 [Example 117, benzoic acid, 4-[(1R,3aS,5aR,5bR,7aR,11aS,11bR,13aR,13bR)-2,3,3a,4,5,5a,5b,6,7,7a,8,11,11a,11b,12,13,13a,13b-octadecahydro-5a,5b,8,8,11a-pentamethyl-1-(1-methylethenyl)-3a-[[(tetrahydro-1,1-dioxido-2H-1,2-thiazin-2-yl)acetyl]amino]-1H-cyclopenta[a]chrysen-9-yl]]	< 100 nM
C=C(C)[C@@H]1CC[C@]2(NCCN3CCN(S(=O)(=O)c4ccc(F)cc4)CC3)CC[C@]3(C)[C@H](CC[C@@H]4[C@@]5(C)CC=C(c6ccc(C(=O)O)cc6)C(C)(C)[C@@H]5CC[C@]43C)[C@@H]12 [Example B50, 4-((1R,3aS,5aR,5bR,7aR,11aS,11bR,13aR,13bR)-3a-((2-(4-((4-fluorophenyl)sulfonyl)piperazin-1-yl)ethyl)amino)-5a,5b,8,8,11a-pentamethyl-1-(prop-1-en-2-yl)-2,3,3a,4,5,5a,5b,6,7,7a,8,11,11a,11b,12,13,13a,13b-octadecahydro-1H-cyclopenta[a]chrysen-9-yl)benzoic acid]	< 100 nM
C=C(C)[C@@H]1CC[C@]2(NCCN3CCN(S(=O)(=O)CCCCl)CC3)CC[C@]3(C)[C@H](CC[C@@H]4[C@@]5(C)CC=C(c6ccc(C(=O)O)cc6)C(C)(C)[C@@H]5CC[C@]43C)[C@@H]12 [Example B38, 4-((1R,3aS,5aR,5bR,7aR,11aS,11bR,13aR,13bR)-3a-((2-(4-((3-chloropropyl)sulfonyl)piperazin-1-yl)ethyl)amino)-5a,5b,8,8,11a-pentamethyl-1-(prop-1-en-2-yl)-2,3,3a,4,5,5a,5b,6,7,7a,8,11,11a,11b,12,13,13a,13b-octadecahydro-1H-cyclopenta[a]chrysen-9-yl)benzoic acid]	< 100 nM
C=C(C)[C@@H]1CC[C@]2(NCCN3CCN(C(=O)C(=O)N4CCCCC4)CC3)CC[C@]3(C)[C@H](CC[C@@H]4[C@@]5(C)CC=C(c6ccc(C(=O)O)cc6)C(C)(C)[C@@H]5CC[C@]43C)[C@@H]12 [Example B29, 4-((1R,3aS,5aR,5bR,7aR,11aS,11bR,13aR,13bR)-5a,5b,8,8,11a-pentamethyl-3a-((2-(4-(2-oxo-2-(piperidin-1-yl)acetyl)piperazin-1-yl)ethyl)amino)-1-(prop-1-en-2-yl)-2,3,3a,4,5,5a,5b,6,7,7a,8,11,11a,11b,12,13,13a,13b-octadecahydro-1H-cyclopenta[a]chrysen-9-yl)benzoic acid]	< 100 nM

Same assay, conditions: Renilla, NL43, luciferase activity in cells infected for 4-5 days with NLRluc recombinants, serial dilutions of inhibitor; numeric values; read-out: EC50

Structure (SMILES)	EC50
C=C(C)[C@@H]1CC[C@]2(NC(=O)N3CCN(C4CCCC4)C(=O)C3)CC[C@]3(C)[C@H](CC[C@@H]4[C@@]5(C)CC=C(c6ccc(C(=O)O)cc6)C(C)(C)[C@@H]5CC[C@]43C)[C@@H]12 [Example 37, 4-((1R,3aS,5aR,5bR,7aR,11aS,11bR,13aR,13bR)-3a-(4-cyclopentyl-3-oxopiperazine-1-carboxamido)-5a,5b,8,8,11a-pentamethyl-1-(prop-1-en-2-yl)-2,3,3a,4,5,5a,5b,6,7,7a,8,11,11a,11b,12,13,13a,13b-octadecahydro-1H-cyclopenta[a]chrysen-9-yl)benzoic acid]	4 nM
